Earlier results as cited in patent US20150182483A1 (priority 2014, published 2015).

Legend:
[1] = system: chemical diabetes induced by streptozotocin
[2] = humans
[3] = prior art, Kalogeropoulou et al. 2009
[4] = pH at which two predominant microspecies have net charge of zero
[5] = intravenous, subjects
[6] = D-lysine treatment with streptozotocin diabetes

NCCCC[C@@H](N)C(=O)O [D-lysine]
Blood glucose [1, 6]: 25.1 mmol/L | Glycated lens proteins [1, 6]: 4.90% | Glycated serum proteins [1, 6]: 1.4% | HbA1 [1, 6]: 3.0% | Urinary d-lysine [1, 6]: 15.9 mmol/L | Excretion ([1]; animal model): excreted in the urine | Nephrotoxicity ([1]; animal model): not nephrotoxic | non-enzymatic glycation of hemoglobin, lens proteins and serum proteins ([1]; animal model of chemical diabetes induced by streptozotocin): decrease

NCCCC[C@H](N)C(=O)O [L-lysine]
Proposed upper limit (LD 50 not firmly established) [2]: 300-400 mg×kg^−1xd^−1 | Response (hypoglycemic effect) [3]: Lower blood glucose | Isoelectric point (pI) [4]: approximately 9.7 | Effect on blood ammonia [5]: without significantly increasing blood ammonia | Effect on blood glucose [5]: lowers blood glucose
